Measurements reported in ChEMBL document CHEMBL4619775, “2-Arylbenzo[d]oxazole Phosphinate Esters as Second-Generation Modulators of Utrophin for the Treatment of Duchenne Muscular Dystrophy” (J Med Chem, 2020).
≈ marks a conversion by molar mass, not a printed value. Calls of active or inactive are those of the source. No cut-off for these calls is given here.

Key:
[1] = Intrinsic clearance in mouse hepatocytes assessed per 10^6 cells
[2] = Stability in mouse hepatocytes assessed as half life
[3] = Apparent permeability from apical to basolateral side in human Caco2; conditions: Caco-2
[4] = Apparent permeability from basolateral to apical side in human Caco2; conditions: Caco-2
Mus musculus [5] = organism: Mus musculus; experiment: Upregulation of utrophin expression in dystrophin-deficient mouse myoblasts at 10 uM after 72 hrs by Western blot analysis; type: functional
[6] = Solubility of compound by turbidimetric assay
[7] = Plasma protein binding in mouse
[8] = Plasma protein binding in human
[9] = Microsomal stability in mouse liver microsomes assessed as half life
[10] = Microsomal stability in human liver microsomes assessed as half life
Mus musculus [11] = organism: Mus musculus; experiment: Upregulation of utrophin expression in dystrophin-deficient mouse myoblasts after 72 hrs by Western blot analysis; type: functional
[12] = molecular target: 5-hydroxytryptamine receptor 2B (Homo sapiens, UniProt P41595); experiment: Antagonist activity at human Gq-coupled 5HT2B receptor expressed in HEK293 cells assessed as inhibition of serotonin-induced calcium mobilization by calcium-sensitive dye based FLIPR assay; type: functional, cell-based
[13] = Stability in human hepatocytes assessed as half life after 60 mins
[14] = Volume of distribution in mdx mouse at 1 mg/kg, iv; conditions: in vivo
Mus musculus [15] = experiment: Protection against DMD in mdx C57BL/10 mouse assessed as force drop in extensor digitorum longus muscle at 30 mg/kg, po qd for 5 weeks measured post-last dose (reference value: 44.9%); type: functional
[16] = Drug metabolism in mouse hepatocytes assessed as compound racemization after 60 mins; conditions: 1 h
[17] = Drug metabolism in human hepatocytes assessed as compound racemization after 60 mins; conditions: 1 h
[18] = mouse, in vivo, iv, 1 mg/kg
[19] = mouse, in vivo, po, 5 mg/kg, 24 h
[20] = mouse, in vivo, po, 5 mg/kg, 168 h
[21] = mouse, in vivo, iv, 1 mg/kg; remark: listed apart in the source
[22] = mouse, in vivo, po, 5 mg/kg, 24 h; remark: listed apart in the source
[23] = mouse, in vivo, po, 5 mg/kg, 168 h; remark: listed apart in the source
[24] = mouse, in vivo, po, 5 mg/kg, 168 h; remark: listed apart in the source
[25] = mouse, in vivo, po, 5 mg/kg, 24 h; remark: listed apart in the source
[26] = Drug level in rat treated with methyl ethyl(2-(3-(trifluoromethyl)phenyl)benzo[d]oxazol-5-yl)phosphinate assessed as compound formation; type: ADME; conditions: in vivo
[27] = Aqueous kinetic solubility of the compound; conditions: buffer
Mus musculus [28] = experiment: Protection against stretch-induced damage in mdx C57BL/10 mouse assessed as improvement in muscle resistance at 30 mg/kg, po qd for 5 weeks; type: functional
[29] = Intrinsic clearance in mouse liver microsomes
[30] = Intrinsic clearance in human liver microsomes
[31] = Intrinsic clearance in mouse hepatocytes after 60 mins; conditions: 1 h
[32] = Intrinsic clearance in human hepatocytes after 60 mins; conditions: 1 h
[33] = Stability in mouse hepatocytes assessed as half life after 60 mins
[34] = Half life in mdx mouse at 5 mg/kg, po after 1 day; conditions: in vivo, t1/2
[35] = Drug metabolism in mouse hepatocytes assessed as interconversion to opposite enantiomeric form after 60 mins; conditions: 1 h
[36] = Drug metabolism in human hepatocytes assessed as interconversion to opposite enantiomeric form after 60 mins; conditions: 1 h
in vivo [37] = conditions: mdx, mouse, iv, 1 mg/kg
in vivo [38] = conditions: mdx, mouse, po, 5 mg/kg, F

Sequence of 5-hydroxytryptamine receptor 2B (P41595 whole entry): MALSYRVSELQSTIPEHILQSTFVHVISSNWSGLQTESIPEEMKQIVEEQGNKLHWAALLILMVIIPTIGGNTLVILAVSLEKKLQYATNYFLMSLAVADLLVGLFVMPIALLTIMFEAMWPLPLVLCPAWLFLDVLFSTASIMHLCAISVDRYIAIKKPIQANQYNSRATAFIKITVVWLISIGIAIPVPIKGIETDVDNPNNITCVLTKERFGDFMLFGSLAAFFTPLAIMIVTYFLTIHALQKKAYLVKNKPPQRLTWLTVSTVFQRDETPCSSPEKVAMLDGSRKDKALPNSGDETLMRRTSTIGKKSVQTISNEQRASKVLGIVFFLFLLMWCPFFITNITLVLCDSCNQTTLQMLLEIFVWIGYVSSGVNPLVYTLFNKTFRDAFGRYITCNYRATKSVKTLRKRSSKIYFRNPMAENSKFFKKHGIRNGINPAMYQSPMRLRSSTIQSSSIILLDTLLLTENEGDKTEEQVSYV

`CCP(=O)(OC1CC1)c1ccc2oc(-c3cccc(C(F)(F)F)c3)nc2c1` (configuration not stated) showed a hepatocyte CLint [1] of 8.65 µL/min/1e6 cells, a half-life [2] of 1.33 h and a Papp A→B [3] of 10.6 ×10⁻⁶ cm/s. For the same compound, the Papp B→A [4] was 5.75 ×10⁻⁶ cm/s.
With `CCP(=O)(OC)c1ccc2nc(-c3ccc(F)cc3)oc2c1` (configuration not stated) the Activity (Mus musculus [5]) was “inactive”.
`CCP(=O)(OC1CCC1)c1ccc2oc(-c3cccc(C(F)(F)F)c3)nc2c1` (configuration not stated) showed a hepatocyte CLint [1] of 32.8 µL/min/1e6 cells, a half-life [2] of 0.35 h and a Papp A→B [3] of 6.38 ×10⁻⁶ cm/s. It also gave a Papp B→A [4] of 3.98 ×10⁻⁶ cm/s.
In the case of `COP(=O)(c1ccc2nc(-c3ccc(F)cc3)oc2c1)C(C)C` (configuration not stated), the solubility kinetic [6] is reported as over 100 µM, the fraction unbound [7] is reported as 0.17 and the fraction unbound [8] is reported as 0.04. The half-life ([9]; liver microsomes) was 0.45 h and the half-life ([10]; liver microsomes) was over 17.1 h.
In the case of `CC(=O)Nc1ccc2oc(-c3ccc4ccccc4c3)nc2c1`, the solubility kinetic [6] is reported as 3 to 10 µM (≈ 0.907 to 3.02 µg/mL).
For `CCP(=O)(OC)c1ccc2oc(-c3cccc(C(F)(F)F)c3)nc2c1` (racemic), the Activity (Mus musculus [11]) was “Dose-dependent effect”.
For `CC(C)C(=O)Nc1ccc2oc(-c3ccc4ccccc4c3)nc2c1`, the solubility kinetic [6] was 1 to 3 µM (≈ 0.33 to 0.991 µg/mL).
Compound `CCP(=O)(OC)c1ccc2oc(-c3ccc(F)cc3)nc2c1` (single isomer, unassigned; (-)) has an EC50 [12] of 50 µM, a PPB [7] of 77% and a PPB [8] of 85%. The half-life at 1 h [13] was over 7.67 h, the Vd [14] was 1.58 L/kg and the Activity (Mus musculus [15]) was 44.4%. The Drug metabolism [16] was “Metabolite_Notdetected”, the Drug metabolism [17] was “Metabolite_Notdetected” and the Cmax [18] was 477 ng/mL. For the same compound, the Cmax [19] was 352 ng/mL, the Cmax [20] was 299 ng/mL and the AUC [21] was 226 ng·h/mL. It also gave an AUC [22] of 444 ng·h/mL, an AUC [23] of 513 ng·h/mL and an F [24] of 45.4%. The F [25] was 39.4%.
With `CCP(=O)(O)c1ccc2oc(-c3cccc(C(F)(F)F)c3)nc2c1` the fraction unbound [8] was 0.01, the Drug uptake [26] was “Active” and the hepatocyte CLint [1] was under 2.89 µL/min/1e6 cells. The half-life [2] was 4 h and the solubility kinetic [27] was 337 µM (≈ 120 µg/mL).
`CCP(=O)(OC)c1ccc2nc(-c3cnc4ccccc4c3)oc2c1` (configuration not stated) gave a solubility kinetic [6] of over 100 µM, a fraction unbound [7] of 0.23 and a fraction unbound [8] of 0.1. For the same compound, the half-life ([9]; liver microsomes) was over 73.3 h.
With `CCP(=O)(OC)c1ccc2oc(-c3ccc(F)cc3)nc2c1` (single isomer, unassigned; (+)) the EC50 [12] was 9.3 µM, the PPB [7] was 80% and the Activity (Mus musculus [15]) was 29.4%. The Activity (Mus musculus [28]) was 35%, the Cmax [19] was 542 ng/mL and the Cmax [20] was 736 ng/mL. For the same compound, the AUC [21] was 510 ng·h/mL, the AUC [22] was 1570 ng·h/mL and the AUC [23] was 1620 ng·h/mL. The F [24] was 63.7% and the F [25] was 61.6%.
Compound `CCS(=O)(=O)c1ccc2oc(-c3ccc4ccccc4c3)nc2c1` [EZUTROMID] has a solubility kinetic [6] of 3 to 10 µM (≈ 1.01 to 3.37 µg/mL), a fraction unbound [7] of under 0.01 and a microsomal CLint ([29]; microsomes) of 21 µL/min/mg. For the same compound, the half-life ([9]; microsomes) was 1.1 h, the microsomal CLint ([30]; microsomes) was 14.4 µL/min/mg and the half-life ([10]; microsomes) was 1.6 h. For the same compound, the CLH [31] was 54 µL/min, the CLH [32] was 31 µL/min and the half-life at 1 h [33] was 0.433 h. For the same compound, the half-life at 1 h [13] was 0.75 h, the Drug metabolism [16] was “Metabolite_Notdetected” and the Drug metabolism [17] was “Metabolite_Notdetected”.
`O=S1(=O)CCCN1c1ccc2oc(-c3ccc4ccccc4c3)nc2c1` showed a solubility kinetic [6] of 3 to 10 µM (≈ 1.09 to 3.64 µg/mL).
In the case of `CCP(=O)(OC1CC1)c1ccc2nc(-c3cccc(C(F)(F)F)c3)oc2c1` (configuration not stated), the fraction unbound [7] is reported as 0.01, the hepatocyte CLint [1] is reported as 8.92 µL/min/1e6 cells and the half-life [2] is reported as 1.3 h. It also gave a solubility kinetic [27] of 652 µM (≈ 258 µg/mL).
In the case of `CCOP(=O)(CC)c1ccc2oc(-c3ccc(F)cc3)nc2c1` (configuration not stated), the solubility kinetic [6] is reported as over 100 µM, the fraction unbound [7] is reported as 0.16 and the fraction unbound [8] is reported as 0.08. It also gave a microsomal CLint ([29]; liver microsomes) of 39.1 µL/min/mg, a half-life ([9]; liver microsomes) of 0.6 h and a microsomal CLint ([30]; liver microsomes) of 2.41 µL/min/mg. For the same compound, the half-life ([10]; liver microsomes) was 9.58 h.
`CCP(=O)(OC)c1ccc2oc(-c3ccc(F)cc3)nc2c1` (racemic) [listing 1 of 2 here] gave a solubility kinetic [6] of over 100 µM, a PPB [7] of 75% and a fraction unbound ([8]; PPB) of 0.12. It also gave a half-life ([9]; microsomes) of 1.43 h, a half-life ([10]; microsomes) of 6.38 h and a Vd ([14]; mdx, Vd) of 1.46 L/kg. The Activity (Mus musculus [15]) was 31.8%, the Activity (Mus musculus [28]) was 29% and the half-life at 24 h [34] was 2.25 h. The Drug metabolism [35] was under 1%, the Drug metabolism [36] was under 1% and the Cmax [19] was 734 ng/mL. The Cmax [20] was 566 ng/mL, the AUC [21] was 431 ng·h/mL and the AUC [22] was 1660 ng·h/mL. It also gave an AUC [23] of 1160 ng·h/mL, an F [25] of 77.2% and a Cmax (in vivo [37]) of 562 ng/mL. For the same compound, the bioavailability at 168 h (in vivo [38]) was 53.7%.
For `CCP(=O)(OC)c1ccc2oc(-c3ccc(F)cc3)nc2c1` (racemic) [listing 2 of 2 here], the Activity (Mus musculus [11]) was “Dose-dependent effect”.
